In ChEMBL document CHEMBL5038628, “Discovery of spiro amide SHR902275: A potent, selective, and efficacious RAF inhibitor targeting RAS mutant cancers” (Eur J Med Chem, 2022):
Values after ≈ are worked out from the molar mass of the structure shown.

Assays:
[1] = biological target: RAF proto-oncogene serine/threonine-protein kinase (Homo sapiens, UniProt P04049); assay: Inhibition of human recombinant cRAF measured after 60 mins by TR-FRET assay
NCI-H358 = assay: Cytotoxicity against human NCI-H358 cells assessed as inhibition of growth measured after 72 hrs by CellTiter-Glo luciferase assay; assay type: functional
[2] = Solubility of the compound at pH 7.4; conditions: buffer
[3] = Half life in Sprague-Dawley rat plasma at 1 mg/kg, iv by LC-MS/MS analysis; assay type: ADME, organism-based; conditions: for t1/2: in vivo, 1 mg/kg; for half-life: Sprague-Dawley, plasma
[4] = Clearance in Sprague-Dawley rat plasma at 1 mg/kg, iv by LC-MS/MS analysis; assay type: ADME, organism-based
[5] = AUC (0 to t) in Sprague-Dawley rat plasma at 1 mg/kg, iv by LC-MS/MS analysis; assay type: ADME, organism-based; set-up: dose 1 mg/kg
[6] = MRT (0 to infinity) in Sprague-Dawley rat plasma at 1 mg/kg, iv by LC-MS/MS analysis; assay type: ADME, organism-based; conditions: in vivo
Calu-6 = assay: Antitumor activity against human Calu-6 cells xenografted in nude mouse assessed as tumor growth inhibition at 30 mg/kg,IT QD for 12 days relative to control; assay type: functional; conditions: Calu-6, 288 h, time 12 day, read-out: TGI
[7] = Cmax in Sprague-Dawley rat plasma at 2 mg/kg, IG by LC-MS/MS analysis; assay type: ADME, organism-based; set-up: route […], dose 2 mg/kg; conditions: po
[8] = AUC (0 to t) in Sprague-Dawley rat plasma at 2 mg/kg, IG by LC-MS/MS analysis; assay type: ADME, organism-based; set-up: dose 2 mg/kg; conditions: Sprague-Dawley, plasma, po
[9] = Oral bioavailability in Sprague-Dawley rat by LC-MS/MS analysis; assay type: ADME, organism-based; conditions: Sprague-Dawley, in vivo
[10] = Metabolic stability in human liver microsomes assessed as half life; assay type: ADME, Microsome

Chain of RAF proto-oncogene serine/threonine-protein kinase (P04049 whole entry): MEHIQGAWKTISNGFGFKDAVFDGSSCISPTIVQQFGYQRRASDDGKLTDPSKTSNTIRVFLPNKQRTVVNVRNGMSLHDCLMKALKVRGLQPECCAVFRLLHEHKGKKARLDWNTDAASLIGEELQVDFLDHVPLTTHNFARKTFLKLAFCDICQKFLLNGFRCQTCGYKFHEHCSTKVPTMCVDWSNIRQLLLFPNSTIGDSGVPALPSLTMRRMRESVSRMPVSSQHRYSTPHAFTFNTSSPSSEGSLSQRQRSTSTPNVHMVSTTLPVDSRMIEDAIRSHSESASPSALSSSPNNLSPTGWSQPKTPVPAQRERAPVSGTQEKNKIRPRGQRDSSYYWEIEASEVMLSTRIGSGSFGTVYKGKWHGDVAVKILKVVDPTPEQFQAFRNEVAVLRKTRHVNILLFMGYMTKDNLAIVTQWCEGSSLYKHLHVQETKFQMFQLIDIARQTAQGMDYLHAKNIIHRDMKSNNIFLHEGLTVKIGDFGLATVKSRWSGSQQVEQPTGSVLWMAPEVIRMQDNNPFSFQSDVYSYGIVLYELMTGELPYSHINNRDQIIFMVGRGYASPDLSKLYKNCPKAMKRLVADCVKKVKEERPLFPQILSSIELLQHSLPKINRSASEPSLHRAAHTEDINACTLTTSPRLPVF

| IC50 [1] [nM] | solubility [2] [µM] | SMILES | GI50 (NCI-H358) [nM] | further results |
| --- | --- | --- | --- | --- |
| 1.3 | 8.5 (≈ 4.47 µg/mL) | Cc1ccc(NC(=O)c2ccnc(C(F)(F)F)c2)cc1-c1ccc2c(c1)OC1(CCOCC1)CN(C)C2=O | 2900 | – |
| 5.5 | 0.35 (≈ 0.179 µg/mL) | Cc1ccc(NC(=O)c2cc(C(F)(F)F)ncn2)cc1-c1ccc2c(c1)OC1(CCOCC1)CC(=O)N2 | 2700 | – |
| 32 | – | Cc1ccc(NC(=O)c2ccnc(C(F)(F)F)c2)cc1-c1ccc2c(c1)OC1(CCOCC1)CCO2 | 8500 | – |
| 6.7 | – | Cc1cc(F)c(NC(=O)Nc2ccnc(C(F)(F)F)c2)cc1-c1ccc2c(c1)OC1(CCOCC1)CC(=O)N2 | 200 | t1/2 [3]: 22.2 min; clearance [4]: 120 mL/min/kg; AUC(0-t) [5]: 154 ng·h/mL; MRT [6]: 11.4 min |
| 13 | – | Cc1ccc(NC(=O)c2ccnc(C(F)(F)F)c2)cc1-c1ccc2c(c1)OC1(CCOCC1)CN(CCN(C)C)C2=O | 7600 | – |
| 8.6 | 26 (≈ 13.1 µg/mL) | Cc1ccc(NC(=O)c2ccnc(C(F)(F)F)c2)cc1-c1cc(OCCO)nc(N2CCOCC2)c1 [NAPORAFENIB] | 3000 | inhibition in vivo at 30 mg/kg (Calu-6): 67% |
| 3.2 | 0.44 (≈ 0.225 µg/mL) | Cc1ccc(NC(=O)c2cnnc(C(F)(F)F)c2)cc1-c1ccc2c(c1)OC1(CCOCC1)CC(=O)N2 | 2000 | Cmax [7]: 40 ng/mL; half-life [3]: 90 min; clearance [4]: 16.1 mL/min/kg; AUC(0-t) [8]: 176 ng·h/mL; bioavailability [9]: 9.2% |
| 3.6 | – | COc1ccc(NC(=O)c2ccnc(C(F)(F)F)c2)cc1-c1ccc2c(c1)OC1(CCOCC1)CC(=O)N2 | 5900 | – |
| 19.7 | – | Cc1ccc(NC(=O)c2cccc(C(F)(F)F)n2)cc1-c1ccc2c(c1)OC1(CCOCC1)CC(=O)N2 | 6800 | – |
| 2 | 1.4 (≈ 0.717 µg/mL) | Cc1ccc(NC(=O)c2nccc(C(F)(F)F)n2)cc1-c1ccc2c(c1)OC1(CCOCC1)CC(=O)N2 | 2300 | – |
| 5 | – | Cc1ncc(NC(=O)c2ccnc(C(F)(F)F)c2)cc1-c1ccc2c(c1)OC1(CCOCC1)CC(=O)N2 | 6300 | – |
| 334 | – | Cc1ccc(NC(=O)c2ccnc(C(F)(F)F)n2)cc1-c1ccc2c(c1)OC1(CCOCC1)CC(=O)N2 | 12000 | – |
| 48 | – | Cc1ccc(-c2nnc(-c3ccnc(C(F)(F)F)c3)[nH]2)cc1-c1ccc2c(c1)OC1(CCOCC1)CC(=O)N2 | 2500 | t1/2 [3]: 227 min; clearance [4]: 17.1 mL/min/kg; AUC(0-t) [8]: 38.6 ng·h/mL; bioavailability [9]: 2.16%; AUC(0-t) [5]: 999 ng·h/mL; MRT [6]: 155 min |
| 9.2 | 0.41 (≈ 0.234 µg/mL) | Cc1ccc(NC(=O)c2cc(OCCO)nc(OC(F)F)c2)cc1-c1ccc2c(c1)OC1(CCOCC1)CC(=O)N2 | 2000 | – |
| 2.6 | – | Cc1ccc(NC(=O)c2cc(C(F)(F)F)cnn2)cc1-c1ccc2c(c1)OC1(CCOCC1)CC(=O)N2CCO | 2600 | half-life [10]: 11 min |
| 0.8 | 7 (≈ 3.46 µg/mL) | Cc1ccc(NC(=O)c2cc(C(F)F)cnn2)cc1-c1ccc2c(c1)OC1(CCOCC1)CC(=O)N2 | 3900 | – |
| 32 | – | Cc1ccc(NS(=O)(=O)c2ccnc(C(F)(F)F)c2)cc1-c1ccc2c(c1)OC1(CCOCC1)CC(=O)N2 | > 30000 | – |
| 4.5 | – | Cc1ccc(NC(=O)c2ccnc(C(F)(F)F)c2)cc1-c1ccc2c(c1)OC1(CCOCC1)CC(=O)N2C | 7100 | – |
| 3.6 | 10.4 (≈ 5.32 µg/mL) | Cc1ccc(NC(=O)c2ccnc(C(F)(F)F)c2)cc1-c1ccc2c(c1)OC1(CCOCC1)CNC2=O | 2900 | Cmax [7]: 7.7 ng/mL; AUC(0-t) [8]: 41.3 ng·h/mL |
| 11.3 | 1.4 (≈ 0.716 µg/mL) | Cc1ccc(NC(=O)c2cc(C(F)(F)F)ccn2)cc1-c1ccc2c(c1)OC1(CCOCC1)CC(=O)N2 | 2900 | – |
| 4.1 | 0.16 (≈ 0.0815 µg/mL) | Cc1ccc(NC(=O)c2ccnc(OC(F)F)c2)cc1-c1ccc2c(c1)OC1(CCOCC1)CC(=O)N2 | 900 | Cmax [7]: 107 ng/mL; half-life [3]: 90 min; clearance [4]: 16.7 mL/min/kg; AUC(0-t) [8]: 455 ng·h/mL; bioavailability [9]: 22% |
| 1.8 | – | Cc1cnc(NC(=O)c2ccnc(C(F)(F)F)c2)cc1-c1ccc2c(c1)OC1(CCOCC1)CC(=O)N2 | 3800 | – |

| IC50 [1] [nM] | solubility [2] [µM] | SMILES | GI50 (NCI-H358) [nM] | further results |
| --- | --- | --- | --- | --- |
| 34 | – | Cc1ccc(NC(=O)c2ccnc(C(F)(F)F)c2)cc1-c1ccc2c(c1)OC1(CCOCC1)CN(CC(C)(C)O)C2=O | 6200 | – |
| 69 | – | Cc1ccc(NC(=O)c2ccc(C(F)(F)F)s2)cc1-c1ccc2c(c1)OC1(CCOCC1)CC(=O)N2 | 3400 | – |
| 0.83 | – | Cc1ccc(NC(=O)c2ccnc(C(F)(F)F)c2)cc1-c1ccc2c(c1)OC1(CCOCC1)CC(=O)N2CCO | 4700 | – |
| 3.3 | – | Cc1ccc(NC(=O)C2CCNC(C(F)(F)F)C2)cc1-c1ccc2c(c1)OC1(CCOCC1)CC(=O)N2 (configuration not stated) | > 30000 | – |
| 28 | – | Cc1ccc(NC(=O)c2cc(C(F)(F)F)nn2C)cc1-c1ccc2c(c1)OC1(CCOCC1)CC(=O)N2 | 13000 | – |
| 7.1 | 0.61 (≈ 0.295 µg/mL) | Cc1ccc(NC(=O)c2ccnc(C3CC3)c2)cc1-c1ccc2c(c1)OC1(CCOCC1)CC(=O)N2 | 2500 | – |
| 4.3 | – | Cc1ccc(NC(=O)c2ccnc(C(F)(F)F)c2)cc1-c1ccc2c(c1)OC1(CCOCC1)CNC2 | 15000 | – |
| 4.7 | – | Cc1cc(F)c(NC(=O)N(C)c2ccnc(C(F)(F)F)c2)cc1-c1ccc2c(c1)OC1(CCOCC1)CC(=O)N2 | 9400 | – |
| 22 | 3.6 (≈ 1.95 µg/mL) | COc1nnc(C(=O)Nc2ccc(C)c(-c3ccc4c(c3)OC3(CCOCC3)CC(=O)N4)c2)cc1C(F)(F)F | 2600 | half-life [10]: 57 min |
| 3.2 | – | Cc1cc(F)c(NC(=O)Cc2ccnc(C(F)(F)F)c2)cc1-c1ccc2c(c1)OC1(CCOCC1)CC(=O)N2 | 9400 | – |
| 21 | – | Cc1ccc(C(=O)Nc2ccnc(C(F)(F)F)c2)cc1-c1ccc2c(c1)OC1(CCOCC1)CC(=O)N2 | 8600 | – |
| 3.5 | – | O=C1CC2(CCOCC2)Oc2cc(-c3cc(NC(=O)c4ccnc(C(F)(F)F)c4)ccc3CO)ccc2N1 | 21000 | – |
| 3.4 | – | Cc1ccc(NC(=O)c2cc(OC3CC3)cnn2)cc1-c1ccc2c(c1)OC1(CCOCC1)CC(=O)N2 | 1900 | half-life [10]: 6.8 min |
| 5.4 | 0.06 (≈ 0.0307 µg/mL) | Cc1ccc(NC(=O)c2cncc(C(F)(F)F)c2)cc1-c1ccc2c(c1)OC1(CCOCC1)CC(=O)N2 | 1600 | – |
| 1.3 | 311 (≈ 173 µg/mL) | Cc1ccc(NC(=O)c2ccnc(C(F)(F)F)c2)cc1-c1ccc2c(c1)OC1(CCOCC1)CN(CCO)C2=O | 3200 | Cmax [7]: 5.9 ng/mL; clearance [4]: 40.4 mL/min/kg; AUC(0-t) [8]: 29 ng·h/mL; bioavailability [9]: 3.47% |
| 3.3 | – | Cc1ccc(NC(=O)c2cncc(C(F)(F)F)n2)cc1-c1ccc2c(c1)OC1(CCOCC1)CC(=O)N2 | 5200 | – |
| 26 | – | Cc1ccc(NC(=O)c2cc(OCCO)nc(C(F)(F)F)c2)cc1-c1ccc2c(c1)OC1(CCOCC1)CC(=O)N2 | 4300 | – |
| 3.9 | 2.3 (≈ 1.21 µg/mL) | Cc1ccc(NC(=O)c2cc(C(F)(F)F)cnn2)cc1-c1ccc2c(c1)OC1(CCOCC1)CC(=O)N2C | 1300 | half-life [10]: 4.6 min |
| 2.2 | – | Cc1ccc(NC(=O)c2ccnc(C(F)(F)F)c2)nc1-c1ccc2c(c1)OC1(CCOCC1)CC(=O)N2 | > 30000 | – |
| 13 | – | Cc1ccc(NC(=O)N2CCCC(C(F)(F)F)C2)cc1-c1ccc2c(c1)OC1(CCOCC1)CC(=O)N2 (configuration not stated) | 5500 | – |
| 5.4 | – | Cc1ccc(NC(=O)c2ccnc(C(F)(F)F)c2)cc1-c1ccc2c(c1)OC1(CCN2)CCOCC1 | 13000 | – |
